According to ChEMBL document CHEMBL1201862, “PubChem BioAssay data set” (2004):
Active and inactive are the calls of the source.

Legend:
[1] = target: T1, Corticotropin-releasing factor receptor 2/Corticotropin-releasing factor-binding protein (Homo sapiens, UniProt P24387+Q13324); experiment: Dose Response confirmation of uHTS hits for small molecule antagonists of the CRF-binding protein and CRF-R2 receptor complex.; type: functional; settings: read-out: IC50_Mean
T1 sequence (Q13324 whole entry): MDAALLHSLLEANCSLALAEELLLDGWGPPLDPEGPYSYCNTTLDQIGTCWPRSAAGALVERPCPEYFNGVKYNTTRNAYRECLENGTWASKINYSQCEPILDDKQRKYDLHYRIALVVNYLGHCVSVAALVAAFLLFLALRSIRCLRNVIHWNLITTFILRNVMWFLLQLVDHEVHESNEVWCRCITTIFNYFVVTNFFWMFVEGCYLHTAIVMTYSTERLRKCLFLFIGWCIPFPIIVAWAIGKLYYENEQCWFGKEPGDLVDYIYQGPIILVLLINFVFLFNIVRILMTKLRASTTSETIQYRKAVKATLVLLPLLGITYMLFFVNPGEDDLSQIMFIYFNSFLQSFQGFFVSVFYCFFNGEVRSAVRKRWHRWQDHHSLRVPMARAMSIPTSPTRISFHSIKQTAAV
T1 sequence (P24387 whole entry): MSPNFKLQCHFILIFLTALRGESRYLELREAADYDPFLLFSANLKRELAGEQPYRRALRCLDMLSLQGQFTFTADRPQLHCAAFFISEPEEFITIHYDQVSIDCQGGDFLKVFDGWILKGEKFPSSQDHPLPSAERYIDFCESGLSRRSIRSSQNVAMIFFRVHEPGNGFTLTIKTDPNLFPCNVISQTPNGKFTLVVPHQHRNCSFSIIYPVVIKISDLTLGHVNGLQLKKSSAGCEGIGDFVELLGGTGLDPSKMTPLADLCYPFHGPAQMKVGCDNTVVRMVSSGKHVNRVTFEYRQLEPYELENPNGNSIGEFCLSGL

[2] = target: Voltage-dependent T-type calcium channel subunit alpha-1H (Homo sapiens, UniProt O95180); type: functional;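 note: channel activity triggered by adding a high calcium stimulation buffer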
[3] = target: T1, Corticotropin-releasing factor receptor 2/Corticotropin-releasing factor-binding protein; experiment: activators of CRF receptor 2 with binding protein – uHTS hits, confirmation (AID 602473); type: functional; settings: read-out: EC50_Mean
Genome polyprotein = Genome polyprotein (dengue virus type 2, UniProt P29990); experiment: Dengue-2 NS5 methyltransferase inhibitors, primary screen, biochemical, confirmation dose response (AID 588689); type: functional
Coagulation factor XII = target: T2, Coagulation factor XII (Homo sapiens, UniProt P00748); type: functional;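 note: activated factor XIIa alpha cleaving a fluorogenic AMC peptide substrate; inhibitor potency from loss of enzyme activity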
T2 sequence (P00748 whole entry): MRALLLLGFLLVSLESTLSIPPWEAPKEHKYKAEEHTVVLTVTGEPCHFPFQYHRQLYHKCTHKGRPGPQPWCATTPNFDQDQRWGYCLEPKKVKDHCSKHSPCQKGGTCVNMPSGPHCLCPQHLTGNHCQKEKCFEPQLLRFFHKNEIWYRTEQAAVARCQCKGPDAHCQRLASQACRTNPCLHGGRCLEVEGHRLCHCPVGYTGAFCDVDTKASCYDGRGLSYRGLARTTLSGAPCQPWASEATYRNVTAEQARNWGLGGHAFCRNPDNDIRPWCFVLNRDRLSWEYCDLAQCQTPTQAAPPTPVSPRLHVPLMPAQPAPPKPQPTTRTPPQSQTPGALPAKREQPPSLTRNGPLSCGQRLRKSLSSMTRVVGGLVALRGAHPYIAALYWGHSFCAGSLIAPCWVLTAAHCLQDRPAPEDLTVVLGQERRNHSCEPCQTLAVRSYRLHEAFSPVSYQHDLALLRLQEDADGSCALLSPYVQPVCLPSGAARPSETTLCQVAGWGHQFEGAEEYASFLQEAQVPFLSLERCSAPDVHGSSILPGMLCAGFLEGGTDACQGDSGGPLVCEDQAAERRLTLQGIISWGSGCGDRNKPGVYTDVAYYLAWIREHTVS

[4] = target: Peroxisome proliferator-activated receptor gamma/Nuclear receptor coactivator 3 (Homo sapiens, UniProt P37231); experiment: (§1) TR-FRET dose response biochemical High Throughput Screening assay for agonists of the steroid receptor coactivator 3 (SRC-3) recruitment by the peroxisome proliferator-activated receptor gamma (PPAR gamma): non-selective agonists. [Related pubchem assays: 1301 (Confirmation screen.), 1048 (Primary screen.)]; type: functional
[5] = target: Peroxisome proliferator-activated receptor gamma/Nuclear receptor coactivator 1 (Homo sapiens, UniProt P37231); experiment: as §1, with “1 (SRC-1)” for “3 (SRC-3)”, “assays (depositor defined):AID1300, AID1808, AID504735, AID631]” for “assays: 1301 (Confirmation screen.), 1048 (Primary screen.)]”; type: protein assay
[6] = target: Peroxisome proliferator-activated receptor gamma/Nuclear receptor coactivator 2 (Homo sapiens, UniProt P37231); experiment: TR-FRET dose response biochemical High Throughput Screening assay for agonists of the steroid receptor coactivator 2 (SRC-2) recruitment by the peroxisome proliferator-activated receptor gamma (PPAR gamma): non-selective agonists. [Related pubchem assays: 1297, 1032 ]; type: functional
Aminopeptidase N = target: T3, Aminopeptidase N (Plasmodium falciparum FcB1/Columbia, UniProt O96935); experiment: P. falciparum M1AAP inhibitors, biochemical, fluorogenic H-Leu-NHMec substrate, 1536-well (AID 1445); set-up: species or system Plasmodium falciparum 3D7, 3D7
T3 sequence (O96935 whole entry): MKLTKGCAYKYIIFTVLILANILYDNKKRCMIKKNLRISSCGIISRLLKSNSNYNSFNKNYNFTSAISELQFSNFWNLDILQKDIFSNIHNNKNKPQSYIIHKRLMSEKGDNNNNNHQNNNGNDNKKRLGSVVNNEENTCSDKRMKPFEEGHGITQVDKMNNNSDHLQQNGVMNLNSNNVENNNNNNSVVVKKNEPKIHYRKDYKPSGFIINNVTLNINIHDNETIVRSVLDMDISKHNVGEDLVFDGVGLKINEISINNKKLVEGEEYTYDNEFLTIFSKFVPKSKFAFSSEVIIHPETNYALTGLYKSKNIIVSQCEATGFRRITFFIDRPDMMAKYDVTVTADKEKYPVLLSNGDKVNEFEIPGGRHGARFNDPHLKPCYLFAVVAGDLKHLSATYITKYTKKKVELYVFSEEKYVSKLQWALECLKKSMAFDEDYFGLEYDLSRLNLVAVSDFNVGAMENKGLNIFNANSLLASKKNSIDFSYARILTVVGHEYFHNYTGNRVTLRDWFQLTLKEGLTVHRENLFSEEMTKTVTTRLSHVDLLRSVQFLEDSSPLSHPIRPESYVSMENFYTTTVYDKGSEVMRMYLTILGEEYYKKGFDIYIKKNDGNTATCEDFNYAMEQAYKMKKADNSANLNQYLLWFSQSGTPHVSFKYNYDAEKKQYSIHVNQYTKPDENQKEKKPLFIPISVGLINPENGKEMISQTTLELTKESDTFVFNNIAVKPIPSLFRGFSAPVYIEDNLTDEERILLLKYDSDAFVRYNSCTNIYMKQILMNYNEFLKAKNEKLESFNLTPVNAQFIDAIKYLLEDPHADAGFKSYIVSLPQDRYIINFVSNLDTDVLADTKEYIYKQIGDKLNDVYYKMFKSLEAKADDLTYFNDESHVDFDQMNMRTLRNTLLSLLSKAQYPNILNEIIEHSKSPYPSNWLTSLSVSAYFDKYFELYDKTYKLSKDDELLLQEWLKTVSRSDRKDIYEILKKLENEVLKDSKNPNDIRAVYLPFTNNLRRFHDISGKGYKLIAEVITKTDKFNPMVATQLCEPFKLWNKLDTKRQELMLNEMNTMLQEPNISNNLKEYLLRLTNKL

[7] = microbe, parasite or virus in culture; type: functional; settings: Mycobacterium tuberculosis
[8] = target: T4, Small ubiquitin-related modifier 1 (Homo sapiens, UniProt P63165); experiment: inhibitors of SUMO1 peptide binding, dose response, biochemical, fluorescence polarization, uHTS hits (AID 624382); type: functional; settings: read-out: IC50_Mean
[9] = target: T4, Small ubiquitin-related modifier 1; experiment: inhibitors of SUMO1 partner interactions, dose response, biochemical, FRET (AID 624383); type: functional; settings: read-out: IC50_Mean
Protein Tat = target: T5, Protein Tat (Human immunodeficiency virus type 1 group M subtype B (isolate HXB2)(HIV-1), UniProt P04608); type: functional;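 note: tat binding to TAR RNA read out by fluorescence polarization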
T5 sequence (P04608 whole entry): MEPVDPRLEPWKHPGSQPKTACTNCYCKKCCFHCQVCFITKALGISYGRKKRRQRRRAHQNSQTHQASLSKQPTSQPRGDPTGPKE

[10] = inhibitors of Vif binding to APOBEC3G peptide, primary screen, biochemical, TR-FRET, GST-Vif 1-94, biotin-A3G peptide, dose response retest (AID 1117319); type: functional;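 note: TR-FRET signal of purified GST-Vif binding a biotinylated A3G peptide; inhibitors lower the FRET signal by blocking Vif and A3G binding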
[11] = cytotoxicity toward NIH3T3 fibroblasts, dose response, counter-screen, cell-based, ATP luminescence, mouse fibroblasts (AID 2010); type: functional;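 note: cells exposed to compound for about 90 hours before reading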
[12] = inhibitors of intracellular T. cruzi replication, confirmation, NIH3T3 host cells, beta-gal luminescence (AID 2044); type: functional, cell-based;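 note: intracellular parasites grown in NIH/3T3 mouse fibroblasts as host cells; luminescent beta-galactosidase reporter signal from transgenic T. cruzi replicating inside host cells; inhibitors lower the luminescence signal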
cells = type: functional
[13] = THP-1 cell cytotoxicity, dose response, cytotoxicity control for non-replicating M. tuberculosis project (AID 489025); type: functional
[14] = HepG2 cell cytotoxicity, dose response, cytotoxicity control for non-replicating M. tuberculosis project (AID 489018); type: functional; settings: Mycobacterium tuberculosis
[15] = cytotoxicity in KRAS-transformed pancreatic duct cells, primary screen, cell-based, fluorescence, HTS (AID 431); type: functional; settings: Homo sapiens;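 note: cell line used: HPDE-C7K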
Cytochrome P450 2D6 = Cytochrome P450 2D6 (Homo sapiens, UniProt P10635);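 note: CYP2D6 member of a cytochrome P450 panel assay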
[16] = cytotoxicity in HPDE-C7 cells, cell-based, fluorescence, HTS (AID 430); type: functional; settings: Homo sapiens
SUMO-activating enzyme = SUMO-activating enzyme (Homo sapiens, UniProt Q9UBT2); experiment: SUMOylation inhibitor hit validation, confirmation, SUMOylation inhibitor project, biochemical, AlphaScreen (AID 2018); type: functional
Cytochrome P450 2C19 = Cytochrome P450 2C19 (Homo sapiens, UniProt P33261); experiment: Cytochrome panel assay with activity outcomes. Panel member name: p450-cyp2c19 Compounds with AC50 equal or less than 10 uM are considered active; type: functional; settings: read-out: AC50
[17] = target: Glucose-6-phosphate 1-dehydrogenase (Homo sapiens, UniProt P11413); experiment: human G6PD enzyme inhibitors, dose response, selectivity assay for P. falciparum G6PD inhibitor project, biochemical, fluorescence (AID 504792); type: functional

Sequence of Voltage-dependent T-type calcium channel subunit alpha-1H (O95180 whole entry): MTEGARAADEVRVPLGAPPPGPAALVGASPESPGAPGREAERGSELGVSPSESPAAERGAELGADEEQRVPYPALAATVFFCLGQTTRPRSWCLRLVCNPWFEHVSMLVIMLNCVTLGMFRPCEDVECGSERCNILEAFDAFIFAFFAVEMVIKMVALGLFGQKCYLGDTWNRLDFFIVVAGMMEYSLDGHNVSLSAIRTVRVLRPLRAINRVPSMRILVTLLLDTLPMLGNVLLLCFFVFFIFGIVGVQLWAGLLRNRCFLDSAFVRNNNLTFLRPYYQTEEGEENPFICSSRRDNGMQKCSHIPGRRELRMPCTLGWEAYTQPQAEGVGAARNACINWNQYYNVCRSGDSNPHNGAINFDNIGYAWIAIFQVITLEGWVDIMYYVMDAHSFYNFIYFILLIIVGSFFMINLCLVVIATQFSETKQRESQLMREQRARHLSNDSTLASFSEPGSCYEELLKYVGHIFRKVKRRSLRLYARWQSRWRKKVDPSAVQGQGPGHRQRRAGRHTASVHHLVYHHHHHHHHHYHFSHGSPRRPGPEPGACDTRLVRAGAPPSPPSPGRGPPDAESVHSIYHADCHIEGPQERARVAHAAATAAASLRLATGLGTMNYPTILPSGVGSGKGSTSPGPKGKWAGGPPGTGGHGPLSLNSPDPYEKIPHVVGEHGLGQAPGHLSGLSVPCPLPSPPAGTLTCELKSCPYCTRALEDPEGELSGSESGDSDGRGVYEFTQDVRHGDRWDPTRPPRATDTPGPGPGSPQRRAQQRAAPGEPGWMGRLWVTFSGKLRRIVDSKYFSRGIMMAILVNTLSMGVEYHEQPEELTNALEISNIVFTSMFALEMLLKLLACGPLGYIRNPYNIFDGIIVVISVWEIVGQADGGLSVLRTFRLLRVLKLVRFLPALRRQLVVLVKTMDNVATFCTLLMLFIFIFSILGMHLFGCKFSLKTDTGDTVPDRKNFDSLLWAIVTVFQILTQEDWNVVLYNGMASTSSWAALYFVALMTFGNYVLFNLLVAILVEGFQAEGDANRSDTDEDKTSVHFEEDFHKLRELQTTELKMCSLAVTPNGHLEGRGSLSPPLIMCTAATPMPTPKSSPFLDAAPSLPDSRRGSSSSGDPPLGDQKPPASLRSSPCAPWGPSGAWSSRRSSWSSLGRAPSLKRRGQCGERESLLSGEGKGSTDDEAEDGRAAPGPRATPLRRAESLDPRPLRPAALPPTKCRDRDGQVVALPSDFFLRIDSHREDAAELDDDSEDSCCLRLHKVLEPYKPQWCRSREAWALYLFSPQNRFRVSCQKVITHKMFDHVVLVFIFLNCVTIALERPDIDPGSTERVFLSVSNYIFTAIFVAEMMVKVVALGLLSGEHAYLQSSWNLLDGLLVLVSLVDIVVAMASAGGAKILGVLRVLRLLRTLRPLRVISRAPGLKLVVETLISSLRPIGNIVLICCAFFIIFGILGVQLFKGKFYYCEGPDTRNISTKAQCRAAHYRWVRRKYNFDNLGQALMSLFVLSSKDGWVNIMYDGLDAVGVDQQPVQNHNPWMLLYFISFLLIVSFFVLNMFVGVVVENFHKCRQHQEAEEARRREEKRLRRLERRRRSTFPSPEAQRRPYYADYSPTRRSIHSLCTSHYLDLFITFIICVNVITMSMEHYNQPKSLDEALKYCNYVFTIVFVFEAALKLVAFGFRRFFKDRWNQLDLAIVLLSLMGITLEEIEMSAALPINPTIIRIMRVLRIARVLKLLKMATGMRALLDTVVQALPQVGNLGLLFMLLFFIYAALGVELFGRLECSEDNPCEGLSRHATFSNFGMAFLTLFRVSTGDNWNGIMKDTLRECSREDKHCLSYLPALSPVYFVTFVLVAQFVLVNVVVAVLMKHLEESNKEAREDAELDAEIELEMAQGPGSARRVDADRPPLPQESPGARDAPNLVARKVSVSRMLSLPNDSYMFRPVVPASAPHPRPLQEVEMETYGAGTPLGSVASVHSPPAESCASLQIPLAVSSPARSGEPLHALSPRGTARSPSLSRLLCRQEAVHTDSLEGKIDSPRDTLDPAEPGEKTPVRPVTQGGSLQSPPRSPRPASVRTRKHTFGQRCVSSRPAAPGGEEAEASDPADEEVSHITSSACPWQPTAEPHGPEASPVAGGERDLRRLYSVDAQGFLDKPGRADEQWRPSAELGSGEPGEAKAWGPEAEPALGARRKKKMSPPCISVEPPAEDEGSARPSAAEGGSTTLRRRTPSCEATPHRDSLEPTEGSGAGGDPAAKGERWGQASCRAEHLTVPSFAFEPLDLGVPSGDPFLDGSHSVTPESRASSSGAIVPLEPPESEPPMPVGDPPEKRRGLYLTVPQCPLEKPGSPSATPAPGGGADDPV
Sequence of Peroxisome proliferator-activated receptor gamma/Nuclear receptor coactivator 2 (P37231 whole entry): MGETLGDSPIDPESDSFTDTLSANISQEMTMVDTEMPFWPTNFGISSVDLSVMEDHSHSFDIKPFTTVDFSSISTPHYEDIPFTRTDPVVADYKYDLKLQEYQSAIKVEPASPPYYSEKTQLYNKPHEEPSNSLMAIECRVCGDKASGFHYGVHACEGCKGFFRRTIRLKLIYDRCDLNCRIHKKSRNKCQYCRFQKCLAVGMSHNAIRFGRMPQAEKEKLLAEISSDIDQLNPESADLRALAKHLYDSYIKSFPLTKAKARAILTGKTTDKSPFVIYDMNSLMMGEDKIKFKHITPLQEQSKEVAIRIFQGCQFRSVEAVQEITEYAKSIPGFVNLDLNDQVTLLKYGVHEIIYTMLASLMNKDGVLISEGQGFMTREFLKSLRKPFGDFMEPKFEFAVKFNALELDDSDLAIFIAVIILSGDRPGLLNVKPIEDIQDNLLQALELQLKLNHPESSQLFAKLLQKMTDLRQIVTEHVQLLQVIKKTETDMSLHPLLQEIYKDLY
Sequence of Peroxisome proliferator-activated receptor gamma/Nuclear receptor coactivator 2 (Q15596 whole entry, further chain): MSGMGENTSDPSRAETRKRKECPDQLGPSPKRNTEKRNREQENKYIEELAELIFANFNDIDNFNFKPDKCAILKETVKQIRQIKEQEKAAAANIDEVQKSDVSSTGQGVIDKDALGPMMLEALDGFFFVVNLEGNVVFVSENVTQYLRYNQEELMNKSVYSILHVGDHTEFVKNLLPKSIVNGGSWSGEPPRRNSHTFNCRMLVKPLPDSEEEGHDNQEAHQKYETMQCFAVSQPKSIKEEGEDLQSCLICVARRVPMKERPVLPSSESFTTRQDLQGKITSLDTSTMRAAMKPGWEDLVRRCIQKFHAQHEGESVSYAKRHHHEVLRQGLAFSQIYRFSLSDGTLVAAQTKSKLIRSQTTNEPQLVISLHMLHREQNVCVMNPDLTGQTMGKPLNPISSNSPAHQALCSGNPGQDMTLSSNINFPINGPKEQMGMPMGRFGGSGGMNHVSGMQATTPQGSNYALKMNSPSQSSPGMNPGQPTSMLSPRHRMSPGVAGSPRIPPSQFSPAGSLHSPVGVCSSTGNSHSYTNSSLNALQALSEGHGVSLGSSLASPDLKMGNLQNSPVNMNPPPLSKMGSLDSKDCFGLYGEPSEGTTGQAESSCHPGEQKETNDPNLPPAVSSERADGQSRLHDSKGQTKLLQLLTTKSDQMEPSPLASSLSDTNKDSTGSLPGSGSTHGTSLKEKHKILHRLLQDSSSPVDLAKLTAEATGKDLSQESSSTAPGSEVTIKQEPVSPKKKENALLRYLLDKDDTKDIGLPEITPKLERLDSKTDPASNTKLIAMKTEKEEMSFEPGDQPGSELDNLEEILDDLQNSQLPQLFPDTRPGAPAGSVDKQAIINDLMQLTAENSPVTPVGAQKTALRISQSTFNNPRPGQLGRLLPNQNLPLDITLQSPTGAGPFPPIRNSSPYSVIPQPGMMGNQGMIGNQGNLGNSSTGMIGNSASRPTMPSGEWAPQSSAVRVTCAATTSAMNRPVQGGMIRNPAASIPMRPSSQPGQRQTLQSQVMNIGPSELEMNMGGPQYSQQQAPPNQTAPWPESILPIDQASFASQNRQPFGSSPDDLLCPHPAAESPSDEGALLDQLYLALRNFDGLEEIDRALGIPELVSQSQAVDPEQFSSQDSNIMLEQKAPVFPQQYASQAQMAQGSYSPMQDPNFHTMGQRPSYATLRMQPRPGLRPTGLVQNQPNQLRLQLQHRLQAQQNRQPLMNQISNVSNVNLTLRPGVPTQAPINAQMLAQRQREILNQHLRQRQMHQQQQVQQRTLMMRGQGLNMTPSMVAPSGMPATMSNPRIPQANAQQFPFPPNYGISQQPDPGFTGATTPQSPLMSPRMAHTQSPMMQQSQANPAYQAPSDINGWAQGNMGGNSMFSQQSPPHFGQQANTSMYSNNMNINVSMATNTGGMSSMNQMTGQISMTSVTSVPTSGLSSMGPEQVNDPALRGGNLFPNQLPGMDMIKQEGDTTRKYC
T4 sequence (P63165 whole entry): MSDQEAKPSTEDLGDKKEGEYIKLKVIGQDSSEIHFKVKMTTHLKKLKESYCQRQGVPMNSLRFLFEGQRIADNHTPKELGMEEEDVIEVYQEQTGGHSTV
Sequence of Cytochrome P450 2D6 (P10635 whole entry): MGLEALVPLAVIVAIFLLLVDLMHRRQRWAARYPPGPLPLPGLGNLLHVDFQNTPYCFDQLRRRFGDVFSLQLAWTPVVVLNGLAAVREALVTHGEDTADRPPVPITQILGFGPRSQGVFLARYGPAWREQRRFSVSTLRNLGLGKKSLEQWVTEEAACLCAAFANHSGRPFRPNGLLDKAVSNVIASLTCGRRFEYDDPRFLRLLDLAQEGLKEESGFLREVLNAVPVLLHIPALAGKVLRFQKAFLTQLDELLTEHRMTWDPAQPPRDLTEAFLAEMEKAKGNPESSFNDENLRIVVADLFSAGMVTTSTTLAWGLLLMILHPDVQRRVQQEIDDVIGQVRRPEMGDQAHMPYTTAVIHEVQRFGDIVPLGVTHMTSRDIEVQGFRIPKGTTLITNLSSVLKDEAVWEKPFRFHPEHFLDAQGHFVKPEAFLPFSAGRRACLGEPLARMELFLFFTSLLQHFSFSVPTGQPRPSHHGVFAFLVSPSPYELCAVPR

CC(C)(C)n1nnnc1C(c1ccc(Cl)cc1)N(Cc1cccnc1)Cc1ccco1 (configuration not stated)
IC50 [1]: > 47.1 µM (inactive) | EC50 [2]: 3.31 µM (active) | EC50 [3]: > 53 µM (inactive)

O=C(O)Cn1cc(C=C2C(=O)NC(=O)NC2=O)c2ccccc21
IC50 (Genome polyprotein): > 100 µM (active)

COc1cc(OC)cc(C(=O)N2CCN(Cc3ccccc3C(F)(F)F)CC2)c1
IC50 (Coagulation factor XII): > 50 µM (inactive)

O=C(CSc1ncnc2c1oc1ccccc12)Nc1cccc(Cl)c1
EC50 [4]: > 79.4 µM (not active) | EC50 [5]: 37.1 µM (inactive) | EC50 [6]: 23.7 µM (not active)

Cc1cccc(OCC(=O)Nc2nnc(-c3ccco3)s2)c1
EC50 [4]: > 79.4 µM (not active) | EC50 [5]: > 26.5 µM (inactive) | EC50 [6]: > 26.5 µM (not active)

CCNS(=O)(=O)c1ccc(CCC(=O)NCc2ccc(C)cc2)cc1
IC50 (Aminopeptidase N): 21.8 µM (active)

CCn1c(=O)cc(SCC(=O)NCc2ccco2)c2ccccc21
EC50 [4]: > 79.4 µM (not active) | EC50 [5]: > 79.4 µM (inactive) | EC50 [6]: > 79.4 µM (not active)

Cc1cc2nc(C3CCN(CC4COc5ccccc5O4)CC3)[nH]c2cc1C (configuration not stated)
CC50 [7]: 30.9 µM (active) | EC50 [2]: 4.9 µM (active)

COc1ccc(-c2nnc(Nc3ccc(S(=O)(=O)Nc4nccs4)cc3)c3ccccc23)cc1
IC50 [8]: > 66.6 µM (inactive) | IC50 [9]: 18.2 µM (active) | EC50 [4]: > 79.4 µM (not active) | EC50 [5]: 14.9 µM (inactive) | IC50 [1]: > 47.1 µM (inactive) | EC50 [6]: 9.18 µM (active) | EC50 [3]: > 53 µM (inactive)

c1cncc(-c2csc(NCc3ccco3)n2)c1
IC50 (Protein Tat): > 100 µM (active) | IC50 (Coagulation factor XII): > 50 µM (inactive) | IC50 [10]: > 100 µM (active)

NCCNC(=O)Cc1cccc(NC(=O)Cc2ccc(Nc3ncnc4c3ncn4[C@@H]3O[C@H](CO)[C@@H](O)[C@H]3O)cc2)c1
IC50 (Aminopeptidase N): 53.7 µM (active)

COC(=O)c1sc(NC(=O)c2ccc([N+](=O)[O-])o2)c(C#N)c1C
EC50 [11]: > 60 µM (not active) | EC50 [12]: 0.255 µM (active) | IC50 (cells): 6.19 µM (active) | CC50 [13]: 18.8 µM (active) | CC50 [14]: > 20 µM (active)

Cc1nc2c(C(=O)NCc3ccc4c(c3)OCO4)cnn2c(O)c1Cc1ccccc1F
EC50 [15]: 11.6 µM (active) | AC50 (Cytochrome P450 2D6): 25.1 µM (inconclusive) | EC50 [2]: 7.38 µM (active) | EC50 [16]: 9.68 µM (active)

O=C(Nc1ccccc1O)c1cc(S(=O)(=O)N2CCOCC2)c(Cl)cc1Cl
IC50 (SUMO-activating enzyme): > 100 µM (inactive)

Cc1cccc(NC(=O)c2cc(N3C(=O)CCC3=O)ccc2Cl)n1
AC50 (Cytochrome P450 2C19): 28.2 µM (inconclusive) | IC50 (Coagulation factor XII): > 50 µM (inactive)

COc1cc(/C=N/NC(=O)c2cccnc2)ccc1OCC(=O)Nc1ccc(C)cc1
IC50 (Aminopeptidase N): 47.8 µM (active)

COc1c2ccoc2c(OCC=C(C)C)c2oc(=O)ccc12 [PHELLOPTERIN]
IC50 [17]: > 80 µM (inactive)
